Measured values published in US20240074473A1, “METHOD FOR INDUCING HYPERTROPHIC MUSCLE FIBERS FOR INDUSTRIAL MEAT PRODUCTION” (Yeda Research and Development Co. Ltd., priority 2021, published 2024).
Where two headings read alike, the source gives them in different places. Values belong to the molecule of their own block, whether it stands above or below them.

Key:
[1] = Risk categorization of cell culture media ingredients
Description: Category 1: These cell culture media components are food ingredients/additives that are GRAS or permitted by federal regulation without limitation on use. Exemplary compounds in this category include innocuous ingredients such as sugars, pH buffers, water soluble vitamins, and common antioxidants such as tocopherols.
Category 2: These cell culture media components are common dietary nutrients and are anticipated to have GRAS status for food use or be permitted by regulation for addition to food. Examples of such compounds include most of the inorganic salts and macronutrients that are present within the cell culture media. […] Majority of nutrients present within the poultry cell-based meat may be readily measured using common validated methods for food composition testing. Batch analyses of multiple lots of the finished product may be obtained to validate the above assumptions. In some instances, consideration of established safe levels (e.g., ADI, UL) derived from a relevant authoritative body (e.g., U.S. FDA, EFSA, JECFA, FSANZ, U.S. EPA) may be leveraged to support safety. If comparisons of anticipated dietary intakes relative to an authoritative reference intake value is used, consideration of additive intakes from all dietary sources may be considered. In the absence of an authoritative reference intake value, published NOAELs from animal toxicology studies may be used to evaluate safety using standard scientific procedures for food safety evaluation. A margin of exposure (MoE) of 100-fold or greater between the NOAEL and estimated dietary intakes from food exposures is typically considered adequate to support safety. in situations where the MoE is <100-fold, additional measures for further reduction of the media component may be necessary, or further characterization of intraspecies/interspecies differences in metabolism may be necessary. These situations also require careful consideration of the regulatory status on a case-by basis (e.g., premarket approval as a food additive or GRAS evaluation required).
For example, situations where the compound is not detectable in finished product or is present at equivalent levels in comparator foods, compounds that are thermo-labile and will be digested during cooking, and/or compounds that are expected to be digested to innocuous compounds following ingestion. Examples of compounds meeting the aforementioned conditions would include recombinant growth factors and serum components. For Category 3 substances a final consideration in the safety assessment process may involve hazard characterization of the potential for a substance to produce toxic biological effects outside of the endpoints measured in a sub-chronic rat toxicity study. Substances with biological activity may require additional hazard characterization related to reproductive and developmental toxicity, or immunotoxicity. Considerations for allergenicity, biological effects in humans (e.g., effects on blood pressure), and synergistic effects with other media components also may be evaluated. […] Examples of category 3 components include recombinant proteins and animal serum.

[2] = Maximum estimated dietary exposure to media ingredients per 100 g serving; settings: assumption of complete transfer of media components to the finished product on a wt/wt basis
[3] = tested on: primary chicken myoblasts; assay: Fusion index of primary chicken myoblasts (MyHC immunostaining); format: cell-based; settings: primary chicken myoblasts; for Fusion index in combination with ERK inhibitor vs ERK inhibitor alone: proliferation media; for Fusion index in combination with ERK inhibitor vs ERK inhibitor alone / Fusion index: 48 hours; for Fusion: 48 hours post treatment; for Fusion index: proliferation medium
Description: Chicken primary derived myoblasts were used as a model to evaluate the efficiency of SCH772984 as the ERKi, compared to conventional differentiation medium (DM) for the purpose of producing muscle (meat) in tissue culture conditions. Chicken myoblasts were isolated from chicken embryos and expanded in proliferation medium. When sufficient cell numbers were acquired, cells were seeded on tissue culture plates and allowed to adhere for 24 hours. Then medium was changed to either PM supplemented with ERKi or DM. At 24-hours post treatment, the cells that received ERKi were replenished with fresh PM (without the addition of more ERKi), and DM treated cells were replenished with fresh DM. Media was replaced daily over a period of 72 hours.
Evaluation of muscle fiber formation was achieved by fixing the cells and staining for expression of Myosin Heavy Chain (FIG. 9A). […] Yet, treatment with conventional DM only began to form fibers beginning at 72-hours post treatment. A fusion index was quantified at 72 hours post treatment (FIG. 9B), in which the percentage of total nuclei present in a myotube (MyHC positive cell with 2 or more nuclei).
Primary chicken myoblast isolation and treatment: chicken myoblasts were isolated from broiler chicken embryos at day 18 from breast and leg muscles by using Trypsin B. Following tissue dissociation, the cell suspension was grown for 3-4 days on 10% Matrigel coated plates. At the first passage, the cells were lifted and pre-plated twice for 30 minutes to enrich for myoblasts and reduce the number of fibroblasts. Then cells were seeded at 8,000/well of optical-96 well plates in proliferation medium. 24 hours after plating, media was aspirated and replaced with the indicated treatment conditions in proliferation media or differentiation media (as indicated). After 24 hours with treatment, the media was aspirated and all wells were replenished with fresh proliferation media or differentiation media without any treatment. This was repeated daily. Cells were fixed at 48 hours after treatment. Compounds were purchased from Cayman Chemicals.
Immunofluorescent staining: Cells were fixed with ice cold 4% PFA in PBS for 10 minutes, permeabilized with 0.5% Triton X-100 in PBS for 6 minutes, and blocked in PBS with 0.025% tween, 10% normal horse serum and 10% normal goat serum for 1 hour at room temperature. Primary antibody incubation was done in blocking buffer overnight at 4 degrees, with the following antibodies: Myosin Heavy Chain (MyHC, MF20, DSHB hybridoma supernatant 1:10, alpha-actinin (SIGMA A7811). Cells were washed 3 times in PBS with 0.025% tween and then incubated with appropriate secondary antibodies in PBS 1 hour. Nuclei were labeled with DAPI (SIGMA D9542, 5 ug/ml). All fusion indexes and imaging analysis were performed on at least 1000 per technical repeat.

[4] = human dietary intake; cited from earlier work
[5] = cell culture media ingredient used during meat production
[6] = SCH772984 1 uM plus 9-cis RA 200 nM, AM80 200 nM, AM580 100 nM, CH55 200 nM, TTNPB 200 nM, Fenretinide 200 nM
[7] = SCH772984 1 uM plus Caffeine 2 mM or Suramin 10 μM

Risk Assessment Category [1, 5]: 2
Molecule: N[C@@H](Cc1ccccc1)C(=O)O [L-PHENYLALANINE]

Risk Assessment Category [1]: 1 | Maximum Estimated Exposure per 100 g serving [2]: 60 mg
Molecule: Nc1nc2ncc(CNc3ccc(C(=O)N[C@@H](CCC(=O)O)C(=O)O)cc3)nc2c(=O)[nH]1 [FOLIC ACID]

Molecule: BOVINE SERUM ALBUMIN: animal component of cell culture media
Risk Assessment Category [1]: 3

Risk Assessment Category [1]: 1
Molecule: Cc1ncc(CO)c(C=O)c1O.Cl [PYRIDOXAL-HCL]

Molecule: N[C@@H](Cc1ccc([O-])cc1)C(=O)[O-].O.O.[Na+].[Na+] [L-TYROSINE-2NA-2H20]
Risk Assessment Category [1, 5]: 2

Molecule: IGF-1 (INSULIN-LIKE GROWTH FACTOR 1): growth factor of cell culture media
Risk Assessment Category [1]: 3

Molecule: Cc1ncc(CO)c(CO)c1O.Cl [PYRIDOXINE-HCL]
Risk Assessment Category [1, 5]: 1 | Maximum Estimated Exposure per 100 g serving [2]: 25 mg

Molecule: CC(C)(C)c1cc(C(=O)/C=C/c2ccc(C(=O)O)cc2)cc(C(C)(C)C)c1 [CH55]
Fusion index in combination with ERK inhibitor vs ERK inhibitor alone [3, 6]: significantly increased the fusion index

Risk Assessment Category [1]: 2
Molecule: C[C@H](N)C(=O)O [L-ALANINE]

Molecule: FGF2 (FIBROBLAST GROWTH FACTOR-BASIC): growth factor of cell culture media
Risk Assessment Category [1]: 3

Risk Assessment Category [1]: 1
Molecule: O=C[C@H](O)[C@@H](O)[C@H](O)[C@H](O)CO [D-GLUCOSE]

Molecule: C[N+](C)(C)CCO.[Cl-] [CHOLINE CHLORIDE]
Risk Assessment Category [1]: 1 | Maximum Estimated Exposure per 100 g serving [2]: 52 mg

Risk Assessment Category [1]: 2
Molecule: N[C@@H](Cc1c[nH]c2ccccc12)C(=O)O [L-TRYPTOPHAN]

Risk Assessment Category [1]: 2
Molecule: C[C@@H](O)[C@H](N)C(=O)O [L-THREONINE]

Molecule: N[C@@H](CCC(=O)N[C@@H](CS)C(=O)NCC(=O)O)C(=O)O [L-GLUTATHIONE]
Risk Assessment Category [1]: 2 | Maximum Estimated Exposure per 100 g serving [2]: 36 mg

Molecule: O.O.O.O.O.O.O.O.O.O=[Si]([O-])[O-].[Na+].[Na+] [SODIUM METASILICATE-9H2O]
Risk Assessment Category [1]: 1 | Maximum Estimated Exposure per 100 g serving [2]: 1.6 mg

Molecule: Cl.N[C@@H](Cc1cnc[nH]1)C(=O)O.O [L-HISTIDINE-HCL-H20]
Risk Assessment Category [1, 5]: 2

Risk Assessment Category [1]: 2
Molecule: CC(C)[C@H](N)C(=O)O [L-VALINE]

Risk Assessment Category [1]: 2
Molecule: CC[C@H](C)[C@H](N)C(=O)O [L-ISOLEUCINE]

Molecule: Cn1c(=O)c2c(ncn2C)n(C)c1=O [Caffeine]
Fusion index in combination with ERK inhibitor vs ERK inhibitor alone [3, 7]: significantly increased the fusion index

Molecule: NC(=O)C[C@H](N)C(=O)O.O [L-ASPARAGINE-H20]
Risk Assessment Category [1]: 2

Molecule: O.O=P([O-])(O)O.[Na+] [SODIUM PHOSPHATE MONOBASIC H20]
Risk Assessment Category [1, 5]: 1 | Maximum Estimated Exposure per 100 g serving [2]: 1500 mg

Molecule: CC1(C)CCC(C)(C)c2cc(C(=O)Nc3ccc(C(=O)O)cc3)ccc21 [AM580]
Fusion index in combination with ERK inhibitor vs ERK inhibitor alone [3, 6]: significantly increased the fusion index

Molecule: N#CC(=C(/N)Sc1ccccc1N)/C(C#N)=C(\N)Sc1ccccc1N [U0126]
Fusion ([3]; Differentiation media, 1 uM): 29% | Fusion ([3]; Differentiation media, 10 uM): 47% | Fusion ([3]; Proliferation media, 1 uM): 16% | Fusion ([3]; Proliferation media, 10 uM): 7%

Molecule: [Cl-].[Na+] [SODIUM CHLORIDE]
Safe Reference Level for Human Dietary Intake (kind of level not given) [4]: 2.3 g/day

Risk Assessment Category [1]: 2
Molecule: Cl.Cl.N[C@@H](CSSC[C@H](N)C(=O)O)C(=O)O [L-CYSTINE 2HCL]

Risk Assessment Category [1]: 2
Molecule: CSCC[C@H](N)C(=O)O [L-METHIONINE]

Molecule: CNc1ccc2oc(C[C@H]3O[C@@]4(CC[C@H]3C)O[C@H]([C@H](C)C(=O)c3ccc[nH]3)[C@H](C)C[C@H]4C)nc2c1C(=O)O [calcimycin]
Fusion index ([3]; ionophore 1 uM plus ERKi 1 uM): 94%

Molecule: PDGF-BB (PLATELET DERIVED GROWTH FACTOR-BB): growth factor of cell culture media
Risk Assessment Category [1]: 3

Risk Assessment Category [1]: 2
Molecule: N[C@@H](CO)C(=O)O [L-SERINE]

Molecule: Cl.NCCCC[C@H](N)C(=O)O [L-LYSINE-HCL]
Risk Assessment Category [1, 5]: 2

Molecule: CC1=C(/C=C/C(C)=C\C=C\C(C)=C\C(=O)O)C(C)(C)CCC1 [9-cis retinoic acid]
Fusion index in combination with ERK inhibitor vs ERK inhibitor alone [3, 6]: significantly increased the fusion index

Molecule: O=C(O)CCCC[C@@H]1SC[C@@H]2NC(=O)N[C@@H]21 [D-BIOTIN]
Risk Assessment Category [1]: 1 | Maximum Estimated Exposure per 100 g serving [2]: 4 mg

Molecule: CC1(C)CCC(C)(C)c2cc(NC(=O)c3ccc(C(=O)O)cc3)ccc21 [AM80]
Fusion index in combination with ERK inhibitor vs ERK inhibitor alone [3, 6]: significantly increased the fusion index

Molecule: Cc1ccc(C(=O)Nc2ccc(S(=O)(=O)O)c3cc(S(=O)(=O)O)cc(S(=O)(=O)O)c23)cc1NC(=O)c1cccc(NC(=O)Nc2cccc(C(=O)Nc3cc(C(=O)Nc4ccc(S(=O)(=O)O)c5cc(S(=O)(=O)O)cc(S(=O)(=O)O)c45)ccc3C)c2)c1 [Suramin]
Fusion index in combination with ERK inhibitor vs ERK inhibitor alone [3, 7]: significantly increased the fusion index

Molecule: C[C@H](CCC(=O)O)C[C@H](C)C[C@H](C)C(=O)/C=C(\O)[C@H](C)C[C@H](C)C/C=C/[C@@H](C)[C@@H](O)[C@@H](C)[C@@H](O)C[C@@H]1CC[C@@](C)([C@H]2CC[C@@](C)([C@@H](C)O)O2)O1 [ionomycin]
Fusion index ([3]; ionophore 2 uM plus ERKi 1 uM): 89%

Risk Assessment Category [1]: 1 | Maximum Estimated Exposure per 100 g serving [2]: 430 mg
Molecule: O[C@H]1[C@H](O)[C@@H](O)[C@H](O)[C@@H](O)[C@H]1O [MYO-INOSITOL]

Molecule: CC1=C(/C=C/C(C)=C/C=C/C(C)=C/C(=O)Nc2ccc(O)cc2)C(C)(C)CCC1 [Fenretinide]
Fusion index in combination with ERK inhibitor vs ERK inhibitor alone [3, 6]: significantly increased the fusion index

Molecule: CCOC(=O)CCCCCCCCCCCN(C)C(=O)CO[C@H](C)[C@@H](C)OCC(=O)N(C)CCCCCCCCCCCC(=O)OCC [calcium ionophore I]
Fusion index ([3]; ionophore 2 uM plus ERKi 1 uM): 89%

Molecule: C/C(=C\c1ccc(C(=O)O)cc1)c1ccc2c(c1)C(C)(C)CCC2(C)C [TTNPB]
Fusion index in combination with ERK inhibitor vs ERK inhibitor alone [3, 6]: significantly increased the fusion index

Risk Assessment Category [1]: 1 | Maximum Estimated Exposure per 100 g serving [2]: 2000 mg
Molecule: O=C1O[C@H]([C@@H](O)CO)C(O)=C1O [ASCORBIC ACID]

Molecule: Cl.N[C@@H](CS)C(=O)O.O [L-CYSTEINE HCL H20]
Risk Assessment Category [1, 5]: 2
